Assay results as given in paper PMC8728736, “A Reactivity-Based ^18F-Labeled Probe for PET Imaging of Oxidative Stress in Chemotherapy-Induced Cardiotoxicity” (Molecular Pharmaceutics, 2021).

Key:
[1] = Reactivity of 18F-FPBT to reactive oxygen species: superoxide; conditions: potassium superoxide, 5 min, ascorbate 1 mg/mL, n = 3
Procedure: (§1) ^18F-FPBT (0.5–2.0 MBq) was reacted with potassium superoxide (source of superoxide, 1 mg), hydrogen peroxide (100 μM), Fenton-reaction-generated hydroxyl radicals (100 μM), iron(II) sulfate heptahydrate (100 μM), tert-butyl hydroperoxide (100 μM), tert-butoxy radical (100 μM), and 3-morpholinosydnomine (source of peroxynitrite (100 μM)) for 5 min or diethylamine NONOate (source of nitric oxide, 100 μM) for 30 min at room temperature, after which it was subjected to radio-HPLC analysis and % oxidation was calculated.

[2] = Ex vivo biodistribution in doxorubicin-treated and control rats after PET; parameters: species or system Wistar rats; conditions: for Ex vivo biodistribution, Blood / Ex vivo biodistribution, Bone / Ex vivo biodistribution, Heart / Ex vivo biodistribution, Kidney / Ex vivo biodistribution, Large Intestine / Ex vivo biodistribution, Liver / Ex vivo biodistribution, Lung / Ex vivo biodistribution, Muscle / Ex vivo biodistribution, Small Intestine / Ex vivo biodistribution, Spleen / Ex vivo biodistribution, Urine: 40 min post-injection
Procedure: Male Wistar rats (280–300 g) were used in all experiments. Subcutaneous 7 day osmotic pumps (Alzet), containing either doxorubicin (Cambridge Bioscience, 30 mg/kg cumulative dose) or vehicle (sterile 0.9% NaCl), were inserted into rats under 2% isoflurane in 100% oxygen.
Wistar rats that had received either doxorubicin treatment (male, 267 ± 19 g, n = 6) or saline (male, 303 ± 9 g, n = 4) via osmotic pumps for 7 days were injected with ^18F-FPBT (2.6 ± 1.5 MBq) via the tail vein on the PET/CT scanner bed. The time of injection coincided with the beginning of PET acquisition in order to obtain dynamic tracer uptake information. PET scans with the chest area in the field of vision were acquired for 30 min, followed by a CT scan, after which the animals were sacrificed and organs harvested, weighed, and gamma-counted as for the biodistribution protocol. The hearts were frozen in liquid nitrogen for gamma counting and oxidative stress biomarker assays. The PET data was reconstructed into three frames: 0–3 min, 3–10 min, and 10–30 min. For the time–activity curve, the PET data was reconstructed into 1 min per frame in the first 5 min and then 5 min per frame between 5 and 30 min. Using VivoQuant software (v3.0, inviCRO, LLC, Boston, USA), regions of interest (ROIs) were drawn in the left ventricle and blood inside the myocardium. Radioactivity uptake in the heart was calculated as a standard uptake value ratio (SUVR) between left ventricle and blood. Data are reported as mean ± SD. Statistical analysis was performed using one-way ANOVA with Tukey’s multiple comparisons test.

[3] = Reactivity of 18F-FPBT to other biologically relevant ROS; conditions: ROS other than superoxide
Procedure: as §1

[4] = Post-mortem biodistribution in healthy rats; type: in vivo, Wistar rats; conditions: for Ex vivo biodistribution, Blood / Ex vivo biodistribution, Bone / Ex vivo biodistribution, Brain / Ex vivo biodistribution, Heart / Ex vivo biodistribution, Kidney / Ex vivo biodistribution, Large Intestine / Ex vivo biodistribution, Liver / Ex vivo biodistribution, Lung / Ex vivo biodistribution, Muscle / Ex vivo biodistribution, Spleen / Ex vivo biodistribution, Urine / Ex vivo biodistribution, Small Intestine: healthy rats, mean ± SD, n = 3
Procedure: Wistar rats (male, 319 ± 20 g) were injected intravenously via the tail vein with either ^18F-FPBT (1.0 ± 0.4 MBq) or ^18F-FPBT-Ox (1.1 ± 0.5 MBq). The animals were sacrificed by cervical dislocation at 1, 5, or 30 min postinjection (n = 3/group). Organs and tissues of interest were harvested and weighed, and the radioactivity was measured in a gamma counter. Organ uptake was calculated as the percentage injected dose per gram of tissue mass (% ID/g). Data are reported as mean ± SD.

[18F]CCCN1c2ccccc2SC1c1ccccc1 (stereo not drawn) [^18F-FPBT, 3-(3-[^18F]Fluoropropyl)-2-phenyl-2,3-dihydrobenzo[d]thiazole]
% oxidation by superoxide in the presence of ascorbate [1]: 31 ± 5% | Post-mortem heart uptake in doxorubicin-treated animals, in words ([2]; 30 min post IV injection): did not show an increased uptake | Ex vivo biodistribution, Blood ([2]; Doxorubicin group, n = 6): 0.08 ± 0.06 % ID/g | Ex vivo biodistribution, Bone ([2]; Doxorubicin group, n = 6): 0.30 ±0.13 % ID/g | Ex vivo biodistribution, Heart ([2]; Doxorubicin group, n = 6): 0.43 ± 0.08 % ID/g | Ex vivo biodistribution, Kidney ([2]; Doxorubicin group, n = 6): 0.41 ± 0.14 % ID/g | Ex vivo biodistribution, Large Intestine ([2]; Doxorubicin group, n = 6): 1.42 ±2.07 % ID/g | Ex vivo biodistribution, Liver ([2]; Doxorubicin group, n = 6): 0.73 ± 0.24 % ID/g | Ex vivo biodistribution, Lung ([2]; Doxorubicin group, n = 6): 0.31 ± 0.12 % ID/g | Ex vivo biodistribution, Muscle ([2]; Doxorubicin group, n = 6): 0.10 ± 0.04 % ID/g | Ex vivo biodistribution, Small Intestine ([2]; Doxorubicin group, n = 6): 2.23 ± 1.43 % ID/g | Ex vivo biodistribution, Spleen ([2]; Doxorubicin group, n = 6): 0.15 ± 0.07 % ID/g | Ex vivo biodistribution, Urine ([2]; Doxorubicin group, n = 6): 12.5 ± 5.33 % ID/g | Ex vivo biodistribution, Blood ([2]; Saline group, n = 4): 0.07 ± 0.02 % ID/g | Ex vivo biodistribution, Bone ([2]; Saline group, n = 4): 0.25 ± 0.22 % ID/g | Ex vivo biodistribution, Heart ([2]; Saline group, n = 4): 0.42 ± 0.17 % ID/g | Ex vivo biodistribution, Kidney ([2]; Saline group, n = 4): 0.42 ± 0.19 % ID/g | Ex vivo biodistribution, Large Intestine ([2]; Saline group, n = 4): 0.38 ± 0.20 % ID/g | Ex vivo biodistribution, Liver ([2]; Saline group, n = 4): 0.65 ± 0.13 % ID/g | Ex vivo biodistribution, Lung ([2]; Saline group, n = 4): 0.29 ± 0.05 % ID/g | Ex vivo biodistribution, Muscle ([2]; Saline group, n = 4): 0.08 ± 0.02 % ID/g | Ex vivo biodistribution, Small Intestine ([2]; Saline group, n = 4): 3.33 ± 3.38 % ID/g | Ex vivo biodistribution, Spleen ([2]; Saline group, n = 4): 0.11 ± 0.02 % ID/g | Ex vivo biodistribution, Urine ([2]; Saline group, n = 4): 5.25 ± 3.05 % ID/g | Reactivity to other biologically relevant ROS [3]: little or no reactivity | Route of clearance / excretion, in words ([4]; healthy Wistar rats, iv): excreted by both renal and hepatobiliary routes | Uptake by major organs (brain, heart, lung, spleen), in words ([4]; healthy Wistar rats, iv): rapid uptake | Ex vivo biodistribution, Blood ([4]; iv, 1 min): 0.12 ± 0.05 % ID/g | Ex vivo biodistribution, Bone ([4]; iv, 1 min): 0.14 ± 0.01 % ID/g | Ex vivo biodistribution, Brain ([4]; iv, 1 min): 0.57 ± 0.04 % ID/g | Ex vivo biodistribution, Heart ([4]; iv, 1 min): 1.33 ± 0.15 % ID/g | Ex vivo biodistribution, Kidney ([4]; iv, 1 min): 1.58 ± 0.11 % ID/g | Ex vivo biodistribution, Large Intestine ([4]; iv, 1 min): 0.21 ± 0.03 % ID/g | Ex vivo biodistribution, Liver ([4]; iv, 1 min): 1.52 ± 0.25 % ID/g | Ex vivo biodistribution, Lung ([4]; iv, 1 min): 0.66 ± 0.15 % ID/g | Ex vivo biodistribution, Muscle ([4]; iv, 1 min): 0.08 ± 0.03 % ID/g | Ex vivo biodistribution, Spleen ([4]; iv, 1 min): 0.67 ± 0.09 % ID/g | Ex vivo biodistribution, Urine ([4]; iv, 1 min): 0.02 ± 0.01 % ID/g | Ex vivo biodistribution, Blood ([4]; iv, 5 min): 0.06 ± 0.00 % ID/g | Ex vivo biodistribution, Bone ([4]; iv, 5 min): 0.18 ± 0.18 % ID/g | Ex vivo biodistribution, Brain ([4]; iv, 5 min): 0.33 ± 0.04 % ID/g | Ex vivo biodistribution, Heart ([4]; iv, 5 min): 0.37 ± 0.08 % ID/g | Ex vivo biodistribution, Kidney ([4]; iv, 5 min): 0.60 ± 0.27 % ID/g | Ex vivo biodistribution, Large Intestine ([4]; iv, 5 min): 0.13 ± 0.02 % ID/g | Ex vivo biodistribution, Liver ([4]; iv, 5 min): 1.75 ± 0.19 % ID/g | Ex vivo biodistribution, Lung ([4]; iv, 5 min): 0.34 ± 0.03 % ID/g | Ex vivo biodistribution, Muscle ([4]; iv, 5 min): 0.05 ± 0.03 % ID/g | Ex vivo biodistribution, Small Intestine ([4]; iv, 5 min): 0.53 ± 0.31 % ID/g | Ex vivo biodistribution, Spleen ([4]; iv, 5 min): 0.18 ± 0.01 % ID/g | Ex vivo biodistribution, Urine ([4]; iv, 5 min): 1.22 ± 0.89 % ID/g | Ex vivo biodistribution, Blood ([4]; iv, 30 min): 0.03 ± 0.00 % ID/g | Ex vivo biodistribution, Bone ([4]; iv, 30 min): 0.13 ± 0.02 % ID/g | Ex vivo biodistribution, Brain ([4]; iv, 30 min): 0.06 ± 0.01 % ID/g | Ex vivo biodistribution, Heart ([4]; iv, 30 min): 0.20 ± 0.04 % ID/g | Ex vivo biodistribution, Kidney ([4]; iv, 30 min): 0.17 ± 0.00 % ID/g | Ex vivo biodistribution, Large Intestine ([4]; iv, 30 min): 0.10 ± 0.03 % ID/g | Ex vivo biodistribution, Liver ([4]; iv, 30 min): 0.47 ± 0.13 % ID/g | Ex vivo biodistribution, Lung ([4]; iv, 30 min): 0.18 ± 0.01 % ID/g | Ex vivo biodistribution, Muscle ([4]; iv, 30 min): 0.08 ± 0.02 % ID/g | Ex vivo biodistribution, Small Intestine ([4]; iv, 30 min): 5.01 ± 0.90 % ID/g | Ex vivo biodistribution, Spleen ([4]; iv, 30 min): 0.05 ± 0.01 % ID/g | Ex vivo biodistribution, Urine ([4]; iv, 30 min): 3.79 ± 2.12 % ID/g | Defluorination in vivo (radioactivity accumulation in the bone) ([4]; rats and mice): inert toward defluorination
